Reference: PubChem BioAssay (NCI)
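Assay format: 96-well plates, 48-hour exposure. GI50 = concentration required for 50% inhibition of growth. TGI marks complete inhibition of growth.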

Legend:
Test in all cases: NCI anticancer screen, dose series, 48 h
MALME-3M melanoma = test system: MALME-3M melanoma
HS 578T breast = test system: HS 578T breast
CCRF-CEM leukemia = test system: CCRF-CEM leukemia
NCI/ADR-RES ovarian = test system: NCI/ADR-RES ovarian
SR leukemia = test system: SR leukemia
A549 NSCLC = test system: A549 NSCLC
NCI-H522 lung = test system: NCI-H522 lung
SNB-19 CNS = test system: SNB-19 CNS
HOP-62 NSCLC = test system: HOP-62 NSCLC
HCC-2998 colon = test system: HCC-2998 colon
T-47D breast = test system: T-47D breast
SK-OV-3 ovarian = test system: SK-OV-3 ovarian
MDA-MB-231 breast = test system: MDA-MB-231 breast
BT-549 breast = test system: BT-549 breast
SF-539 CNS = test system: SF-539 CNS
OVCAR-8 ovarian = test system: OVCAR-8 ovarian
U251 CNS = test system: U251 CNS
DU-145 prostate = test system: DU-145 prostate
UACC-257 melanoma = test system: UACC-257 melanoma
PC-3 prostate = test system: PC-3 prostate
MOLT-4 leukemia = test system: MOLT-4 leukemia
UACC-62 melanoma = test system: UACC-62 melanoma
NCI-H23 lung = test system: NCI-H23 lung
SF-295 CNS = test system: SF-295 CNS
SW-620 colon = test system: SW-620 colon
LOX IMVI melanoma = test system: LOX IMVI melanoma
EKVX NSCLC = test system: EKVX NSCLC
SK-MEL-5 melanoma = test system: SK-MEL-5 melanoma
SK-MEL-28 melanoma = test system: SK-MEL-28 melanoma
RXF 393 renal = test system: RXF 393 renal
KM12 colon = test system: KM12 colon
RPMI-8226 leukemia = test system: RPMI-8226 leukemia
IGROV1 ovarian = test system: IGROV1 ovarian
SNB-75 CNS = test system: SNB-75 CNS
MDA-MB-435 = test system: MDA-MB-435
NCI-H226 lung = test system: NCI-H226 lung
K-562 leukemia = test system: K-562 leukemia
MCF7 breast = test system: MCF7 breast
HCT-15 colon = test system: HCT-15 colon
COLO 205 colon = test system: COLO 205 colon
SK-MEL-2 melanoma = test system: SK-MEL-2 melanoma
SF-268 CNS = test system: SF-268 CNS
HCT-116 colon = test system: HCT-116 colon
OVCAR-5 ovarian = test system: OVCAR-5 ovarian
OVCAR-4 ovarian = test system: OVCAR-4 ovarian
786-0 renal = test system: 786-0 renal
CAKI-1 renal = test system: CAKI-1 renal
HT29 colon = test system: HT29 colon
OVCAR-3 ovarian = test system: OVCAR-3 ovarian
TK-10 renal = test system: TK-10 renal
HL-60(TB) leukemia = test system: HL-60(TB) leukemia
M14 melanoma = test system: M14 melanoma
SN12C renal = test system: SN12C renal
UO-31 renal = test system: UO-31 renal
NCI-H460 lung = test system: NCI-H460 lung
ACHN renal = test system: ACHN renal

## C/C1=C\CC[C@@](C)(O)[C@@H]2C[C@H](CC/C(C)=C/CC1)C1(CC1)C(=O)O2
MALME-3M melanoma
  GI50: 21.6 µM
  TGI: 64.8 µM
HS 578T breast
  GI50: 22.1 µM
  TGI: 60 µM
CCRF-CEM leukemia
  GI50: 76.1 µM
  TGI: > 100 µM
NCI/ADR-RES ovarian
  GI50: 28.3 µM
  TGI: > 100 µM
SR leukemia
  GI50: 28 µM
  TGI: 76.9 µM
A549 NSCLC
  GI50: 42.8 µM
  TGI: > 100 µM
NCI-H522 lung
  GI50: 35.1 µM
  TGI: > 100 µM
SNB-19 CNS
  GI50: 61.9 µM
  TGI: > 100 µM
HOP-62 NSCLC
  GI50: 45.1 µM
  TGI: > 100 µM
HCC-2998 colon
  GI50: 30.4 µM
  TGI: 66.6 µM
T-47D breast
  GI50: 16.7 µM
  TGI: 67.2 µM
SK-OV-3 ovarian
  GI50: 39 µM
  TGI: > 100 µM
MDA-MB-231 breast
  GI50: 13.6 µM
  TGI: 32.6 µM
BT-549 breast
  GI50: 25.5 µM
  TGI: 69.7 µM
SF-539 CNS
  GI50: 49.4 µM
  TGI: > 100 µM
OVCAR-8 ovarian
  GI50: 61.5 µM
  TGI: > 100 µM
U251 CNS
  GI50: 23 µM
  TGI: 57.1 µM
DU-145 prostate
  GI50: 41.8 µM
  TGI: > 100 µM
UACC-257 melanoma
  GI50: 77.8 µM
  TGI: > 100 µM
PC-3 prostate
  GI50: 27.8 µM
  TGI: 69.4 µM
MOLT-4 leukemia
  GI50: 15.5 µM
  TGI: 38.2 µM
UACC-62 melanoma
  GI50: 15.2 µM
  TGI: 37.3 µM
NCI-H23 lung
  GI50: 18.9 µM
  TGI: 48.7 µM
SF-295 CNS
  GI50: 26.7 µM
  TGI: 85.6 µM
SW-620 colon
  GI50: 27.1 µM
  TGI: 73.1 µM
LOX IMVI melanoma
  GI50: 18.8 µM
  TGI: 34.5 µM
EKVX NSCLC
  GI50: 45.4 µM
  TGI: > 100 µM
SK-MEL-5 melanoma
  GI50: 17.4 µM
  TGI: 35 µM
SK-MEL-28 melanoma
  GI50: 18 µM
  TGI: 41.3 µM
RXF 393 renal
  GI50: > 100 µM
  TGI: > 100 µM
KM12 colon
  GI50: 25.4 µM
  TGI: 68.5 µM
RPMI-8226 leukemia
  GI50: 20.3 µM
  TGI: 46.4 µM
IGROV1 ovarian
  GI50: 28.1 µM
  TGI: > 100 µM
SNB-75 CNS
  GI50: 30.8 µM
  TGI: > 100 µM
MDA-MB-435
  GI50: 16.5 µM
  TGI: 35.1 µM
NCI-H226 lung
  GI50: 25.8 µM
  TGI: 76.2 µM
K-562 leukemia
  GI50: 13.6 µM
  TGI: 46.6 µM
MCF7 breast
  GI50: 66.9 µM
  TGI: > 100 µM
HCT-15 colon
  GI50: 30.2 µM
  TGI: > 100 µM
COLO 205 colon
  GI50: 15.6 µM
  TGI: 36.4 µM
SK-MEL-2 melanoma
  GI50: 41.2 µM
  TGI: > 100 µM
SF-268 CNS
  GI50: 81.7 µM
  TGI: > 100 µM
HCT-116 colon
  GI50: 24.2 µM
  TGI: 54.1 µM
OVCAR-5 ovarian
  GI50: 54.9 µM
  TGI: > 100 µM
OVCAR-4 ovarian
  GI50: 26.3 µM
  TGI: > 100 µM
786-0 renal
  GI50: 44.6 µM
  TGI: > 100 µM
CAKI-1 renal
  GI50: 22.2 µM
  TGI: 50.2 µM
HT29 colon
  GI50: 31.4 µM
  TGI: > 100 µM
OVCAR-3 ovarian
  GI50: 22 µM
  TGI: 47.4 µM
TK-10 renal
  GI50: 29.6 µM
  TGI: 96.5 µM
HL-60(TB) leukemia
  GI50: 15.4 µM
  TGI: 33.4 µM
M14 melanoma
  GI50: 32.7 µM
  TGI: 91.6 µM
SN12C renal
  GI50: 21.5 µM
  TGI: 56.2 µM
UO-31 renal
  GI50: 46.5 µM
  TGI: > 100 µM
NCI-H460 lung
  GI50: 51.5 µM
  TGI: > 100 µM
ACHN renal
  GI50: 34.4 µM
  TGI: > 100 µM
